According to publication PMC4452638, “Synthesis and preclinical evaluation of DOTAGA-conjugated PSMA ligands for functional imaging and endoradiotherapy of prostate cancer” (EJNMMI Research, 2014):
Values belong to the compound of their own block, whether it stands above or below them.

Assays:
[1] = biological target: T1, PSMA (Homo sapiens, UniProt Q04609); assay: Competitive PSMA binding assay on LNCaP cells with ([125I]I-BA)KuE as radioligand; details: LNCaP cells 150,000/well, ([125I]I-BA)KuE c = 0.2 nM, HBSS (1% BSA), 4°C, 1 h, mean ± SD (n = 3); read-out: IC50 (PSMA affinity)
T1 construct: host or cells: LNCaP human prostate carcinoma cells
Experimental: (§1) Cell culture: PSMA^+ LNCaP cells (CLS: 300265) were grown in DMEM/Nutrition Mix F-12 with Glutamax-I (1:1) (Invitrogen, Life Technologies, Darmstadt, Germany) supplemented with 10% FCS. Cultures were maintained at 37°C in a 5% CO2/humidified air atmosphere. One day prior to the experiment, cells were harvested using Trypsin/EDTA (0.05% and 0.02%) in PBS, centrifuged and resuspended with culture medium. For cell counting, a Countesse automated cell counter (Invitrogen, Carlsbad, USA) was used. All in vitro binding and internalization studies were performed using live cells seeded 1 day prior to the experiment. For IC50 determination, 150,000 cells/mL were transferred to 24-well plates (1 mL/well), and for internalization studies, 125,000 cells/mL were transferred into PLL-coated 24-well plates.
Then, 25 μL/well of either HBSS (1% BSA; control) or of solutions containing the respective unlabelled ligand of interest in increasing concentrations (10^-10-10^-4 M in HBSS (1% BSA)) was added, followed by the addition of 25 μL of ([^125I]I-BA)KuE in HBSS (1% BSA). Experiments were carried out in triplicate for each concentration. The final radioligand concentration was 0.2 nM in all binding assays. Cells were incubated on ice for 60 min. Incubation was terminated by the removal of the incubation medium. Cells were thoroughly rinsed with 250 μL of HBSS. The wash medium was combined with the supernatant of the previous step. This fraction represents the amount of free radioligand. Cells were then lysed using 250 μL of 1 N NaOH, the lysate was transferred to vials and combined with 250 μL of HBSS used for rinsing the wells. Quantification of the amount of free and bound activity was performed in a γ-counter.
The PSMA binding affinities were determined in a competitive binding assay using LNCaP human prostate carcinoma cells and the known high affinity PSMA ligand ([^125I]I-BA)KuE [10] (c = 0.2 nM) as the radioligand. The IC50 values for the metal-free PSMA-inhibiting compounds and their respective ^natGa and ^natLu complexes are summarized in Table 1. HBED-CC-Ahx-KuE and [^natGa]HBED-CC-Ahx-KuE [12] were included in this study as reference compounds.

[2] = system: LNCaP tumour xenograft; assay: Biodistribution in LNCaP-tumour-bearing mice; assay type: in vivo; details: LNCaP-tumour bearing CD-1 nu/nu mice, 1 h p.i.
Experimental: All animal experiments were conducted in accordance with general animal welfare regulations in Germany (Deutsches Tierschutzgesetz, approval #55.2-1-54-2532-71-13). The prostate cancer cell line LNCaP was suspended 1/1 in serum-free medium and Matrigel (BD Biosciences, Germany) and approximately 10^7 cells in 200 μL were inoculated subcutaneously on the right shoulder of 6 to 8 weeks old CD-1 nu/nu mice (Charles River Laboratories). Tumours were grown for 2 to 4 weeks (males) and 4 to 6 weeks (females) to reach 4 to 8 mm in diameter.
Biodistribution: The ^68Ga-labelled PSMA ligands (approximately 7 to 15 MBq, 0.1 to 0.2 nmol) were injected into the tail vein of isoflurane anesthetized animals. The organ distribution was examined 1 h p.i. and quantified in a γ-counter.
A comparison of the biodistribution of compounds ^68Ga-11, ^68Ga-12 and the reference [^68Ga]HBED-CC-Ahx-KuE in LNCaP-tumour-bearing CD-1 nu/nu mice (1 h p.i.) is shown in Figure 7.

[3] = Determination of lipophilicity (shake flask, n-octanol/PBS); assay type: physicochemical
Experimental: To a solution of 0.5 to 1 MBq of radiolabelled peptide in 500 μl of phosphate-buffered saline (PBS, pH 7.4), 500 μl of n-octanol was added (n = 6). Vials were vortexed vigorously for 3 min. To achieve quantitative phase separation, the vials were centrifuged at 6,000 g for 5 min in a Biofuge 15 (Heraeus Sepatech, Osterode, Germany). The activity concentrations in 100 μl-samples of both the aqueous and the organic phase were measured in a γ-counter. Both the partition coefficient P(o/w), which is defined as the molar concentration ratio of a single species A between n-octanol and water at equilibrium, and logP(o/w), which is an important parameter used to characterize lipophilicity of a compound, were calculated.
The partition coefficient logP between n-octanol and PBS was determined for the compounds listed in Table 3 using the shake flask method. All compounds are highly hydrophilic, with the DOTAGA compounds being up to one order of magnitude more hydrophilic than the corresponding DOTA analogues. Amongst all compounds tested, [^68Ga]HBED-CC-Ahx-KuE was the most hydrophilic compound.

[4] = system: PSMA-expressing LNCaP cells; assay: Internalization studies / cell binding in LNCaP cells; assay type: cell-based, human; details: 37°C, 1 h, 125,000 cells/well, corrected for unspecific binding
Experimental: as §1
Internalization studies: The culture medium was removed, and the cells were washed once with 500 μL DMEM-F12 (5% BSA) before being left to equilibrate in 200 μL DMEM-F12 (5% BSA) at 37°C for a minimum of 15 min. Then, 25 μL (per well) of either DMEM-F12 (5% BSA) or of a 100-μM PMPA solution (blocking) was added, followed by the addition of 25 μL of ^68Ga/^177Lu-labelled PSMA ligand. The final radioligand concentration was 0.2/0.5 nM in all internalization assays. To determine internalization kinetics, cells were then incubated at 37°C for 5, 15, 30 and 60 min, respectively. Experiments were carried out in triplicate for each time point (control and blocking). Incubation was terminated by placing the plate on ice for approximately 1 min and by subsequent removal of the incubation medium. Cells were thoroughly rinsed with 250 μL of PBS. The wash medium was combined with the supernatant of the previous step. This fraction represents the amount of free radioligand. To remove receptor surface bound radioactivity, the cells were then incubated for 10 min with 250 μL of ice cold PMPA solution (10 μM in PBS). After removal of the supernatant, the cells were thoroughly rinsed with another 250 μL of ice cold PBS. Both fractions were combined. The internalized activity was released by incubation with 250 μL of 1 N NaOH, transferred to vials and combined with 250 μL of 1 N NaOH used for rinsing the wells. Quantification of the amount of free, PMPA-releasable and internalized activity was performed in a γ-counter.
The cellular uptake and internalization kinetics of the different ^68Ga- and ^177Lu-labelled PSMA ligands was determined using PSMA-expressing LNCaP cells. In the case of the ^68Ga-labelled compounds, the final peptide concentration in the assays was 0.2 nM. […] All internalization studies were accompanied by reference studies using ([^125I]I-BA)KuE (c = 0.2 nM). This experimental setup allows data normalization and eliminates the influence of cell count and cell viability on absolute cellular tracer uptake. […] Furthermore, to be able to discriminate between total cellular activity (sum of membrane associated and internalized activity) and internalized activity, all incubations were followed by a washing step with 10 μM PMPA at 4°C to remove specifically cell-surface bound radioligand by displacement.

[5] = In vivo metabolite analysis by radio-HPLC; details: CD-1 nu/nu mice, 0.5 h p.i.
Experimental: (§2) ^177Lu-10 and ^177Lu-11 were incubated in 80 μL of human serum (37°C) and 80 μL 0.4 M DTPA solution (RT), respectively and after 1, 24 and 48 h, the stability was determined by TLC analysis. The ^68Ga-labelled tracers (40 to 45 MBq) were injected into the tail vein of CD-1 nu/nu mice. The animals were sacrificed after 30 min, and urine, blood and kidney samples were taken. The kidney was frozen in liquid nitrogen, homogenized with a ball mill and extracted with 0.2 to 1 mL PBS containing 200 nmol 2-(phosphonomethyl)pentane-1,5-dioic acid (PMPA). The suspension was first centrifuged (15,000 g), and after ultrafiltration, the extracts were analysed by RP-HPLC. The blood samples were centrifuged to separate the plasma from the blood cells. Plasma proteins were removed by precipitation with acetonitrile (10 min, 4°C) and subsequent centrifugation and ultrafiltration. The blood extract was also analysed by RP-HPLC.
To investigate the influence of the amino acid composition of the spacer (KFF vs kff) on the metabolic stability in vivo, tissue homogenates and body fluids of mice injected with ^68Ga-11 and ^68Ga-12 were analysed by radio-HPLC. Extraction efficiencies from the blood and from the kidney were 56% and 43% for ^68Ga-11 and 61% and 62% for ^68Ga-12, respectively.

[6] = Stability in human serum (TLC analysis); assay type: in vitro ADME; details: 37°C, 48 h
Experimental: as §2
(§3) The stability of ^177Lu-10 and ^177Lu-11 was investigated by incubation in human serum for 48 h at 37°C and by DTPA challenge (0.4 M, RT, 48 h) and subsequent TLC analysis. Release of ^177Lu^III from the complexes was not observed under the respective experimental conditions in the examined time frame.

[7] = DTPA challenge (TLC analysis); assay type: physicochemical; details: DTPA challenge 0.4 M, RT, 48 h
Experimental: as §2, §3

[8] = n-octanol/PBS pH 7.4, mean ± SD (n = 6)

T1 sequence (Q04609 whole entry): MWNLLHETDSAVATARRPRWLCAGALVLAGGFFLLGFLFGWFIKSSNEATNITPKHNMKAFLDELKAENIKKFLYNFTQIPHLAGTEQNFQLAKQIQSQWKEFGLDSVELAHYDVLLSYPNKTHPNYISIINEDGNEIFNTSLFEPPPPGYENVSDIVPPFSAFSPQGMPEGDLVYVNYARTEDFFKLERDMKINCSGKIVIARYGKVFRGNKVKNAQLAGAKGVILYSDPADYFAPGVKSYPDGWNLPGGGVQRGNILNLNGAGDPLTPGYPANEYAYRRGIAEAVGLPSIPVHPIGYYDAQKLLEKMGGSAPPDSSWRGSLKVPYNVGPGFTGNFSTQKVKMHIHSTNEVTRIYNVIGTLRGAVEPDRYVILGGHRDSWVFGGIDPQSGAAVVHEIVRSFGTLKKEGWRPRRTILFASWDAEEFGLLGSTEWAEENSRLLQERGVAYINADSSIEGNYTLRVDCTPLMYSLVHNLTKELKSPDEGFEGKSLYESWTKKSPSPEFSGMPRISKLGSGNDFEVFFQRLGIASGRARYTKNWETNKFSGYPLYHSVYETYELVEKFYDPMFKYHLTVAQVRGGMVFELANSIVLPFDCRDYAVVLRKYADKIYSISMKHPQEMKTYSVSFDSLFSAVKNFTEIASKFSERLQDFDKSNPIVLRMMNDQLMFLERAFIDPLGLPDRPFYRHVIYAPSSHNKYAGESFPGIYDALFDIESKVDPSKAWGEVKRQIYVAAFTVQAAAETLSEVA

Compound: [^natGa]DOTAGA-ffk(Sub-KuE) [^natGa-12]
IC50 [1]: 0.0159 ± 0.0005 µM

Compound: O=C(O)CCc1ccc(O)c(CN(CCN(CC(=O)O)Cc2cc(CCC(=O)NCCCCCC(=O)NCCCC[C@H](NC(=O)N[C@@H](CCC(=O)O)C(=O)O)C(=O)O)ccc2O)CC(=O)O)c1 [HBED-CC-Ahx-KuE, reference compound]
IC50 [1]: 0.0057 ± 0.0005 µM

Compound: [^natGa]DOTAGA-FFK(Sub-KuE) [^natGa-11]
IC50 [1]: 0.0121 ± 0.0039 µM

Compound: [^natLu]DOTAGA-FFK(Sub-KuE) [^natLu-11]
IC50 [1]: 0.0151 ± 0.0015 µM

Compound: [^68Ga]DOTAGA-FFK(Sub-KuE) [^68Ga-11]
Intact tracer in blood [5]: 21%
log P (o/w) [3, 8]: −3.6 ± 0.1
Internalization (1 h) in % of ([125I]I-BA)KuE ([4]; 68Ga compounds, c = 0.2 nM): 28.4 ± 0.7%

Compound: [^natLu]DOTAGA-ffk(Sub-KuE) [^natLu-12]
IC50 [1]: 0.0131 ± 0.0022 µM

Compound: [^177Lu]DOTAGA-FFK(Sub-KuE) [^177Lu-11]
Release of 177Lu(III) from the complex [6]: not observed
log P (o/w) [3, 8]: −3.9 ± 0.1
Internalization (1 h) in % of ([125I]I-BA)KuE ([4]; 177Lu compounds, c = 0.5 nM): 36.1 ± 1.1%
Release of 177Lu(III) from the complex [7]: not observed

Compound: O=C(O)CC[C@H](NC(=O)N[C@@H](CCCCNC(=O)CCCCCCC(=O)NCCCC[C@H](NC(=O)[C@H](Cc1ccccc1)NC(=O)[C@H](Cc1ccccc1)NC(=O)CN1CCN(CC(=O)O)CCN(CC(=O)O)CCN(CC(=O)O)CC1)C(=O)O)C(=O)O)C(=O)O [compound 10, DOTA-FFK(Sub-KuE), reference compound]
IC50 [1]: 0.0131 ± 0.0023 µM

Compound: [^68Ga]DOTA-FFK(Sub-KuE) [^68Ga-10, reference compound]
log P (o/w) [3, 8]: −3.1 ± 0.2
Internalization (1 h) in % of ([125I]I-BA)KuE ([4]; 68Ga compounds, c = 0.2 nM): 14.6 ± 0.8%

Compound: [^177Lu]DOTAGA-ffk(Sub-KuE) [^177Lu-12]
log P (o/w) ([3]; n-octanol/PBS, listed for 11/12 but determined for the FFK analogue 11 only (footnote a)): −3.9 ± 0.1
Internalization (1 h) in % of ([125I]I-BA)KuE ([4]; 177Lu compounds, c = 0.5 nM): 44.4 ± 1.8%

Second part, led by results:

Tracer uptake into liver [2]: 0.5 ± 0.1 % ID/g
Tracer uptake into lung [2]: 1.9 ± 0.4 % ID/g
Tracer uptake into pancreas [2]: 0.9 ± 0.2 % ID/g
Tracer uptake into spleen [2]: 14.7 ± 2.6 % ID/g
Tumour-to-blood ratio [2]: 12.5 ± 0.7
Tumour-to-skeletal muscle ratio [2]: 16.2 ± 0.1
Uptake into LNCaP tumour xenograft [2]: 4.7 ± 0.2 % ID/g
log P (o/w) [3, 8]: −4.1 ± 0.1
Compound: [^68Ga]HBED-CC-Ahx-KuE [reference compound]
Internalization (1 h) in % of ([125I]I-BA)KuE ([4]; 68Ga compounds, c = 0.2 nM): 91.1 ± 1.7%

IC50 [1]: 0.0061 ± 0.0008 µM
Compound: [^natGa]HBED-CC-Ahx-KuE [reference compound]

IC50 [1]: 0.0547 ± 0.0061 µM
Compound: [^natLu]DOTA-FFK(Sub-KuE) [^natLu-10, reference compound]

IC50 [1]: 0.0139 ± 0.0004 µM
Compound: O=C(O)CC[C@H](NC(=O)N[C@@H](CCCCNC(=O)CCCCCCC(=O)NCCCC[C@@H](NC(=O)[C@@H](Cc1ccccc1)NC(=O)[C@@H](Cc1ccccc1)NC(=O)CCC(C(=O)O)N1CCN(CC(=O)O)CCN(CC(=O)O)CCN(CC(=O)O)CC1)C(=O)O)C(=O)O)C(=O)O (some centres unmarked) [compound 12, DOTAGA-ffk(Sub-KuE)]

Release of 177Lu(III) from the complex [6]: not observed
log P (o/w) [3, 8]: −2.7 ± 0.02
Release of 177Lu(III) from the complex [7]: not observed
Compound: [^177Lu]DOTA-FFK(Sub-KuE) [^177Lu-10, reference compound]
Internalization (1 h) in % of ([125I]I-BA)KuE ([4]; 177Lu compounds, c = 0.5 nM): 19.3 ± 0.9%

IC50 [1]: 0.0102 ± 0.0015 µM
Compound: O=C(O)CC[C@H](NC(=O)N[C@@H](CCCCNC(=O)CCCCCCC(=O)NCCCC[C@H](NC(=O)[C@H](Cc1ccccc1)NC(=O)[C@H](Cc1ccccc1)NC(=O)CCC(C(=O)O)N1CCN(CC(=O)O)CCN(CC(=O)O)CCN(CC(=O)O)CC1)C(=O)O)C(=O)O)C(=O)O (some centres unmarked) [compound 11, DOTAGA-FFK(Sub-KuE)]

IC50 [1]: 0.0295 ± 0.0066 µM
Compound: [^natGa]DOTA-FFK(Sub-KuE) [^natGa-10, reference compound]
